From patent US20100267561A1, “HERBICIDAL PYRIDAZINONE DERIVATIVES” (priority 2007, published 2010) come the findings set out here.

The subject of one assay is downy bromegrass (Bromus tectorum). Description: Test C pre-/postemergence plant response. The conditions noted are these: Postemergence, 8 g ai/ha; scale 0 to 100, 0 no effect, 100 complete control. The format is in vivo. In short, it runs like this:
(§1)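 Visual rating vs untreated controls, 0 (no effect) to 100 (complete control), after 15–25 days in a controlled growth environment. Pre- and postemergence treatments; post plants at 1- to 4-leaf stage, 2–18 cm. Formulation: non-phytotoxic solvent mix plus surfactant.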
On to `Cc1cc(-c2ccc(Cl)cc2)nn1-c1c(OC(=O)CC(C)C)cnn(C)c1=O` [Compound 37], for which the “Plant response rating, Bromegrass, Downy” value is given as 20.
Still for that read-out and setting: next, `Cc1nn(C)c(=O)c(-n2nc(-c3ccc(Cl)cc3)cc2C)c1O` [Compound 15]: 0; `Cc1cc(-c2ccc(C(F)(F)F)c(F)c2)nn1-c1c(O)c(C(F)(F)F)nn(C)c1=O` [Compound 44]: 15.

Still in this assay, the particulars now being: Postemergence, 16 g ai/ha; scale 0 to 100, 0 no effect, 100 complete control.
As for `Cc1cc(-c2ccc(Cl)cc2)nn1-c1c(OC(=O)CC(C)C)cnn(C)c1=O` [Compound 37], the “Plant response rating, Bromegrass, Downy” value was 30.
Same read-out and setting: next, `Cc1nn(C)c(=O)c(-n2nc(-c3ccc(Cl)cc3)cc2C)c1O` [Compound 15]: 15.
The same measure, in the same setting: next, `Cc1cc(-c2ccc(C(F)(F)F)c(F)c2)nn1-c1c(O)c(C(F)(F)F)nn(C)c1=O` [Compound 44]: 40.

Still in this assay, the particulars now being: Postemergence, 31 g ai/ha; scale 0 to 100, 0 no effect, 100 complete control.
As for `Cc1cc(-c2ccc(Cl)cc2)nn1-c1c(OC(=O)CC(C)C)cnn(C)c1=O` [Compound 37], the “Plant response rating, Bromegrass, Downy” value is recorded as 50.
For `Cc1nn(C)c(=O)c(-n2nc(-c3ccc(Cl)cc3)cc2C)c1O` [Compound 15], the “Plant response rating, Bromegrass, Downy” value worked out at 20.
`Cc1cc(-c2ccc(C(F)(F)F)c(F)c2)nn1-c1c(O)c(C(F)(F)F)nn(C)c1=O` [Compound 44]: the “Plant response rating, Bromegrass, Downy” value is listed as 65.

The same assay, now with this note: Postemergence, 62 g ai/ha; scale 0 to 100, 0 no effect, 100 complete control.
As to `Cc1cc(-c2ccc(Cl)cc2)nn1-c1c(OC(=O)CC(C)C)cnn(C)c1=O` [Compound 37], the “Plant response rating, Bromegrass, Downy” value was determined as 70.
Still for that read-out and setting: with `Cc1nn(C)c(=O)c(-n2nc(-c3ccc(Cl)cc3)cc2C)c1O` [Compound 15] the figure was 30; with `Cc1cc(-c2ccc(C(F)(F)F)c(F)c2)nn1-c1c(O)c(C(F)(F)F)nn(C)c1=O` [Compound 44], 75.

Staying with this assay, now noted: Preemergence, 8 g ai/ha; scale 0 to 100 (0 no effect, 100 complete control).
Regarding `Cc1cc(-c2ccc(Cl)cc2)nn1-c1c(OC(=O)c2cccs2)cnn(C)c1=O` [Compound 52], the “Plant response rating, Bromegrass, Downy” value amounted to 0.
The same measure, in the same setting: next, `Cc1cc(-c2ccc(Cl)cc2)nn1-c1c(OC(=O)CC(C)C)cnn(C)c1=O` [Compound 37]: 0; `Cc1nn(C)c(=O)c(-n2nc(-c3ccc(Cl)cc3)cc2C)c1O` [Compound 15]: 0; `Cc1cc(-c2ccc(Cl)cc2)nn1-c1c(OS(=O)(=O)c2ccc(Cl)s2)cnn(C)c1=O` [Compound 55]: 0.
On the same count and under the same terms, with `Cc1cc(-c2ccc(Cl)cc2)nn1-c1c(OS(=O)(=O)c2cccc3ccccc23)cnn(C)c1=O` [Compound 47] the figure was 0; with `Cc1cc(-c2ccc(C(F)(F)F)c(F)c2)nn1-c1c(O)c(C(F)(F)F)nn(C)c1=O` [Compound 44], 0.

The assay is the same for the next values; noted with them: Preemergence, 16 g ai/ha; scale 0 to 100 (0 no effect, 100 complete control).
`Cc1cc(-c2ccc(Cl)cc2)nn1-c1c(OC(=O)c2cccs2)cnn(C)c1=O` [Compound 52]: the “Plant response rating, Bromegrass, Downy” value is recorded as 0.
The same measure, in the same setting: with `Cc1cc(-c2ccc(Cl)cc2)nn1-c1c(OC(=O)CC(C)C)cnn(C)c1=O` [Compound 37] the figure was 0; with `Cc1nn(C)c(=O)c(-n2nc(-c3ccc(Cl)cc3)cc2C)c1O` [Compound 15], 20; with `Cc1cc(-c2ccc(Cl)cc2)nn1-c1c(OS(=O)(=O)c2ccc(Cl)s2)cnn(C)c1=O` [Compound 55], 0.
Consider `Cc1cc(-c2ccc(Cl)cc2)nn1-c1c(OS(=O)(=O)c2cccc3ccccc23)cnn(C)c1=O` [Compound 47], for which the “Plant response rating, Bromegrass, Downy” value amounted to 15.
In the case of `Cc1cc(-c2ccc(C(F)(F)F)c(F)c2)nn1-c1c(O)c(C(F)(F)F)nn(C)c1=O` [Compound 44], the “Plant response rating, Bromegrass, Downy” value amounted to 20.

Staying with this assay, now noted: Preemergence, 31 g ai/ha; scale 0 to 100 (0 no effect, 100 complete control).
In the case of `Cc1cc(-c2ccc(Cl)cc2)nn1-c1c(OC(=O)c2cccs2)cnn(C)c1=O` [Compound 52], the “Plant response rating, Bromegrass, Downy” value is 15.
Still for that read-out and setting: next, `Cc1cc(-c2ccc(Cl)cc2)nn1-c1c(OC(=O)CC(C)C)cnn(C)c1=O` [Compound 37]: 60; `Cc1nn(C)c(=O)c(-n2nc(-c3ccc(Cl)cc3)cc2C)c1O` [Compound 15]: 35.
Still for that read-out and setting: with `Cc1cc(-c2ccc(Cl)cc2)nn1-c1c(OS(=O)(=O)c2ccc(Cl)s2)cnn(C)c1=O` [Compound 55] the figure was 0; with `Cc1cc(-c2ccc(Cl)cc2)nn1-c1c(OS(=O)(=O)c2cccc3ccccc23)cnn(C)c1=O` [Compound 47], 35.
The same measure, in the same setting: next, `Cc1cc(-c2ccc(C(F)(F)F)c(F)c2)nn1-c1c(O)c(C(F)(F)F)nn(C)c1=O` [Compound 44]: 50.

The assay is the same for the next values; noted with them: Preemergence, 62 g ai/ha; scale 0 to 100, 0 no effect, 100 complete control.
Regarding `Cc1cc(-c2ccc(Cl)cc2)nn1-c1c(OC(=O)c2cccs2)cnn(C)c1=O` [Compound 52], the “Plant response rating, Bromegrass, Downy” value amounted to 80.
Same read-out and setting: next, `Cc1cc(-c2ccc(Cl)cc2)nn1-c1c(OC(=O)CC(C)C)cnn(C)c1=O` [Compound 37]: 85; `Cc1nn(C)c(=O)c(-n2nc(-c3ccc(Cl)cc3)cc2C)c1O` [Compound 15]: 70; `Cc1cc(-c2ccc(Cl)cc2)nn1-c1c(OS(=O)(=O)c2ccc(Cl)s2)cnn(C)c1=O` [Compound 55]: 40.
Same read-out and setting: next, `Cc1cc(-c2ccc(Cl)cc2)nn1-c1c(OS(=O)(=O)c2cccc3ccccc23)cnn(C)c1=O` [Compound 47]: 35; `Cc1cc(-c2ccc(C(F)(F)F)c(F)c2)nn1-c1c(O)c(C(F)(F)F)nn(C)c1=O` [Compound 44]: 80.

The subject of the next assay is wild oat (Avena fatua). Description: Test C pre-/postemergence plant response. In kind it is in vivo. To be noted: Postemergence, 8 g ai/ha; scale 0 to 100, 0 no effect, 100 complete control. In short, it runs like this: as §1
For `Cc1cc(-c2ccc(Cl)cc2)nn1-c1c(OC(=O)CC(C)C)cnn(C)c1=O` [Compound 37], the “Plant response rating, Oat, Wild” value was determined as 25.
Still for that read-out and setting: with `Cc1nn(C)c(=O)c(-n2nc(-c3ccc(Cl)cc3)cc2C)c1O` [Compound 15] the figure was 0.
As for `Cc1cc(-c2ccc(C(F)(F)F)c(F)c2)nn1-c1c(O)c(C(F)(F)F)nn(C)c1=O` [Compound 44], the “Plant response rating, Oat, Wild” value is 100.

Staying with this assay, now noted: Postemergence, 16 g ai/ha; scale 0 to 100, 0 no effect, 100 complete control.
For the molecule `Cc1cc(-c2ccc(Cl)cc2)nn1-c1c(OC(=O)CC(C)C)cnn(C)c1=O` [Compound 37], the “Plant response rating, Oat, Wild” value is 80.
Same read-out and setting: next, `Cc1nn(C)c(=O)c(-n2nc(-c3ccc(Cl)cc3)cc2C)c1O` [Compound 15]: 25.
On the same count and under the same terms, next, `Cc1cc(-c2ccc(C(F)(F)F)c(F)c2)nn1-c1c(O)c(C(F)(F)F)nn(C)c1=O` [Compound 44]: 100.

Still in this assay, the particulars now being: Postemergence, 31 g ai/ha; scale 0 to 100, 0 no effect, 100 complete control.
On to `Cc1cc(-c2ccc(Cl)cc2)nn1-c1c(OC(=O)CC(C)C)cnn(C)c1=O` [Compound 37], for which the “Plant response rating, Oat, Wild” value came to 90.
Still for that read-out and setting: with `Cc1nn(C)c(=O)c(-n2nc(-c3ccc(Cl)cc3)cc2C)c1O` [Compound 15] the figure was 90; with `Cc1cc(-c2ccc(C(F)(F)F)c(F)c2)nn1-c1c(O)c(C(F)(F)F)nn(C)c1=O` [Compound 44], 100.

Staying with this assay, now noted: Postemergence, 62 g ai/ha; scale 0 to 100, 0 no effect, 100 complete control.
Take `Cc1cc(-c2ccc(Cl)cc2)nn1-c1c(OC(=O)CC(C)C)cnn(C)c1=O` [Compound 37]: the “Plant response rating, Oat, Wild” value was 95.
On the same count and under the same terms, with `Cc1nn(C)c(=O)c(-n2nc(-c3ccc(Cl)cc3)cc2C)c1O` [Compound 15] the figure was 90; with `Cc1cc(-c2ccc(C(F)(F)F)c(F)c2)nn1-c1c(O)c(C(F)(F)F)nn(C)c1=O` [Compound 44], 100.

Still in this assay, the particulars now being: Preemergence, 8 g ai/ha; scale 0 to 100 (0 no effect, 100 complete control).
Take `Cc1cc(-c2ccc(Cl)cc2)nn1-c1c(OC(=O)c2cccs2)cnn(C)c1=O` [Compound 52]: the “Plant response rating, Oat, Wild” value was determined as 0.
The same measure, in the same setting: next, `Cc1cc(-c2ccc(Cl)cc2)nn1-c1c(OC(=O)CC(C)C)cnn(C)c1=O` [Compound 37]: 20.
Still for that read-out and setting: next, `Cc1nn(C)c(=O)c(-n2nc(-c3ccc(Cl)cc3)cc2C)c1O` [Compound 15]: 0; `Cc1cc(-c2ccc(Cl)cc2)nn1-c1c(OS(=O)(=O)c2ccc(Cl)s2)cnn(C)c1=O` [Compound 55]: 0.
As to `Cc1cc(-c2ccc(Cl)cc2)nn1-c1c(OS(=O)(=O)c2cccc3ccccc23)cnn(C)c1=O` [Compound 47], the “Plant response rating, Oat, Wild” value is given as 0.
The same measure, in the same setting: with `Cc1cc(-c2ccc(C(F)(F)F)c(F)c2)nn1-c1c(O)c(C(F)(F)F)nn(C)c1=O` [Compound 44] the figure was 50.

Staying with this assay, now noted: Preemergence, 16 g ai/ha; scale 0 to 100 (0 no effect, 100 complete control).
As for `Cc1cc(-c2ccc(Cl)cc2)nn1-c1c(OC(=O)c2cccs2)cnn(C)c1=O` [Compound 52], the “Plant response rating, Oat, Wild” value is 40.
As to `Cc1cc(-c2ccc(Cl)cc2)nn1-c1c(OC(=O)CC(C)C)cnn(C)c1=O` [Compound 37], the “Plant response rating, Oat, Wild” value was determined as 20.
The same measure, in the same setting: with `Cc1cc(-c2ccc(Cl)cc2)nn1-c1c(OS(=O)(=O)c2ccc(Cl)s2)cnn(C)c1=O` [Compound 55] the figure was 0.
`Cc1cc(-c2ccc(Cl)cc2)nn1-c1c(OS(=O)(=O)c2cccc3ccccc23)cnn(C)c1=O` [Compound 47]: the “Plant response rating, Oat, Wild” value was 0.
Same read-out and setting: next, `Cc1cc(-c2ccc(C(F)(F)F)c(F)c2)nn1-c1c(O)c(C(F)(F)F)nn(C)c1=O` [Compound 44]: 75.

Still in this assay, the particulars now being: Preemergence, 31 g ai/ha; scale 0 to 100 (0 no effect, 100 complete control).
Regarding `Cc1cc(-c2ccc(Cl)cc2)nn1-c1c(OC(=O)c2cccs2)cnn(C)c1=O` [Compound 52], the “Plant response rating, Oat, Wild” value was found to be 60.
Still for that read-out and setting: next, `Cc1cc(-c2ccc(Cl)cc2)nn1-c1c(OC(=O)CC(C)C)cnn(C)c1=O` [Compound 37]: 70; `Cc1nn(C)c(=O)c(-n2nc(-c3ccc(Cl)cc3)cc2C)c1O` [Compound 15]: 50.
Still for that read-out and setting: with `Cc1cc(-c2ccc(Cl)cc2)nn1-c1c(OS(=O)(=O)c2ccc(Cl)s2)cnn(C)c1=O` [Compound 55] the figure was 0; with `Cc1cc(-c2ccc(Cl)cc2)nn1-c1c(OS(=O)(=O)c2cccc3ccccc23)cnn(C)c1=O` [Compound 47], 75.
On the same count and under the same terms, with `Cc1cc(-c2ccc(C(F)(F)F)c(F)c2)nn1-c1c(O)c(C(F)(F)F)nn(C)c1=O` [Compound 44] the figure was 80.

The assay is the same for the next values; noted with them: Preemergence, 62 g ai/ha; scale 0 to 100, 0 no effect, 100 complete control.
In the case of `Cc1cc(-c2ccc(Cl)cc2)nn1-c1c(OC(=O)c2cccs2)cnn(C)c1=O` [Compound 52], the “Plant response rating, Oat, Wild” value was 60.
For the molecule `Cc1cc(-c2ccc(Cl)cc2)nn1-c1c(OC(=O)CC(C)C)cnn(C)c1=O` [Compound 37], the “Plant response rating, Oat, Wild” value turned out to be 80.
Still for that read-out and setting: next, `Cc1nn(C)c(=O)c(-n2nc(-c3ccc(Cl)cc3)cc2C)c1O` [Compound 15]: 65.
Same read-out and setting: with `Cc1cc(-c2ccc(Cl)cc2)nn1-c1c(OS(=O)(=O)c2ccc(Cl)s2)cnn(C)c1=O` [Compound 55] the figure was 65.
On the same count and under the same terms, next, `Cc1cc(-c2ccc(Cl)cc2)nn1-c1c(OS(=O)(=O)c2cccc3ccccc23)cnn(C)c1=O` [Compound 47]: 80; `Cc1cc(-c2ccc(C(F)(F)F)c(F)c2)nn1-c1c(O)c(C(F)(F)F)nn(C)c1=O` [Compound 44]: 90.
